Where two headings read alike, the source gives them in different places.
Assays:
[1] = test system: rice blast fungus (Pyricularia grisea); format: in vivo; conditions: flowable 5,000 ppm, 50 mL irrigation of nursery box, paddy rice; inoculated after 3 weeks; 7 days after inoculation
[2] = test system: rice sheath blight fungus (Thanatephorus cucumeris); assay: Test Example 10: control effect against rice sheath blight by water surface application (flowable formulation); conditions: flowable 1,000 ppm, 1 mL dripped in paddy water, inoculated after 1 week, 7 days after inoculation
[3] = test system: barley powdery mildew fungus (Erysiphe graminis); assay: Test Example 2: control effect against barley powdery mildew by foliage application; format: in vivo; conditions: wettable powder diluted to 100 ppm, 10 mL per pot foliage spray on barley; inoculated day after; 7 days after inoculation
[4] = test system: rice sheath blight fungus (Thanatephorus cucumeris); assay: Test Example 6: control effect against rice sheath blight by box treatment (flowable formulation); conditions: flowable 5,000 ppm, 50 mL irrigation of nursery box, paddy rice; inoculated after 3 weeks; 7 days after inoculation
Experimental: (§1) Control value (%)=[1−(lesion height in sprayed plot/lesion height in unsprayed plot)]×100 (d)
By irrigation, 50 mL of a diluted solution (5,000 ppm) of a flowable prepared according to Formulation Example-3 was applied to a 2.5-leaf-stage paddy rice (variety: Asahi) seedling raised using a nursery box ( 1/10 the area of standard nursery box in size: 12 cm×15 cm×height 4 cm) within a greenhouse. The formulation-treated paddy rice seedling was immediately transplanted at 5 seedlings/pot into a pot ( 1/10000 are in size) filled with paddy soil (flooded). After growing for 3 weeks within a greenhouse, a culture of rice sheath blight fungus (Thanatephorus cucumeris) grown in advance on a rice straw medium was inoculated into the root of the formulation-treated paddy rice, and disease development was promoted in an artificial weather chamber at 26° C. (relative humidity=100%). Seven days after the inoculation, the rice sheath blight lesion height (height from the root) was examined, and the control value (%) was calculated according to formula (d). […] This test was performed with three replications, each consisting of one plot and one pot, per one formulation plot, and its average evaluation value of control effect was determined.

[5] = test system: rice sheath blight fungus (Thanatephorus cucumeris); assay: Test Example 8: control effect against rice sheath blight by box treatment (granule); conditions: 5 g of granule on nursery box, paddy rice; inoculated after 3 weeks; 7 days after inoculation
Text: as §1
From the top of a nursery box, 5 g of a granule prepared according to Formulation Example-4 was applied to a 2.5-leaf-stage paddy rice (variety: Asahi) seedling raised using a nursery box ( 1/10 the area of standard nursery box in size: 12 cm×15 cm×height 4 cm) within a greenhouse. The formulation-treated paddy rice seedling was immediately transplanted at 5 seedlings/pot into a pot ( 1/10000 are in size) filled with paddy soil (flooded). After growing for 3 weeks within a greenhouse, a culture of rice sheath blight fungus (Thanatephorus cucumeris) grown in advance on a rice straw medium was inoculated into the root of the formulation-treated paddy rice, and disease development was promoted in an artificial weather chamber at 26° C. (relative humidity=100%). Seven days after the inoculation, the rice sheath blight lesion height (height from the root) was examined, and the control value (%) was calculated according to formula (d). […] This test was performed with three replications, each consisting of one plot and one pot, per one formulation plot, and its average evaluation value of control effect was determined.

[6] = test system: rice blast fungus (Pyricularia grisea); format: in vivo; conditions: flowable 1,000 ppm, 1 mL dripped in paddy water, inoculated after 1 week, 7 days after inoculation
[7] = test system: rice blast fungus (Pyricularia grisea); format: in vivo; conditions: 5 g of granule on nursery box, paddy rice; inoculated after 3 weeks; 7 days after inoculation

Row | Compound | evaluation value of control effect (from control value, number of lesions) [1] | evaluation value of control effect (from control value, lesion height) [2] | evaluation value of control effect (from control value, lesion area percentage) [3] | evaluation value of control effect (from control value, lesion height) [4] | evaluation value of control effect (from control value, lesion height) [5] | evaluation value of control effect (from control value, number of lesions) [6] | evaluation value of control effect (from control value, number of lesions) [7]
1 | CC(C)CC(C)c1ccccc1N(C(=O)c1cccnc1Cl)C(=O)c1snc(Cl)c1Cl (centres unmarked) [13-53] | 5 | 5 | 4 | 5 | 5 | 5 | 5
2 | CC(C)CC(C)c1sccc1N(C(=O)c1cccnc1C(F)F)C(=O)c1snc(Cl)c1Cl (centres unmarked) [18-2] | 5 | 5 | 5 | 5 | 5 | 5 | 5
3 | Cc1nnsc1C(=O)N(C(=O)c1cccnc1C(F)F)c1ccsc1C(C)CC(C)C (centres unmarked) [18-8] | 5 | 5 | 5 | 5 | 5 | 5 | 5
4 | CC1OC(C)(C)c2cccc(N(C(=O)c3cn(C)nc3C(F)F)C(=O)c3snc(Cl)c3Cl)c21 (centres unmarked) [25-10] | 5 | 5 | 4 | 5 | 5 | 5 | 5
5 | CC1OC(C)(C)c2cccc(N(C(=O)c3cn(C)nc3C(F)F)C(=O)c3cccc4nnsc34)c21 (centres unmarked) [25-74] | 5 | 5 | 4 | 5 | 5 | 5 | 5
6 | CC1OC(C)(C)c2cccc(N(C(=O)c3cn(C)nc3C(F)F)C(=O)c3onc(Cl)c3Cl)c21 (centres unmarked) [25-114] | 5 | 5 | 4 | 5 | 5 | 5 | 5
7 | Cc1nc(C(F)F)c(C(=O)N(C(=O)c2snc(Cl)c2Cl)c2cccc3c2C(C)OC3(C)C)s1 (centres unmarked) [26-14] | 5 | 5 | 4 | 5 | 5 | 5 | 5
8 | Cc1nc(C(F)F)c(C(=O)N(C(=O)c2snnc2C(F)F)c2cccc3c2C(C)CC3(C)C)s1 (centres unmarked) [26-57] | 5 | 5 | 4 | 5 | 5 | 5 | 5

From patent publication US20210007356A1, “IMIDE DERIVATIVE AND FUNGICIDE CONTAINING SAID DERIVATIVE AS ACTIVE INGREDIENT” (HOKKO CHEMICAL INDUSTRY CO., LTD., priority 2018, published 2021)
